Among the data in EP3623369A1, “NOVEL MORPHOLINYL AMINE COMPOUNDS FOR THE TREATMENT OF AUTOIMMUNE DISEASE” (F. Hoffmann-La Roche AG, priority 2018, dated 2020) are IC50 values, retold here.

SMILES strings stand for the structures.

The assay concerns the target T1, hTLR7 (Homo sapiens, UniProt Q9NYK1).
T1 sequence (Q9NYK1 27-1049): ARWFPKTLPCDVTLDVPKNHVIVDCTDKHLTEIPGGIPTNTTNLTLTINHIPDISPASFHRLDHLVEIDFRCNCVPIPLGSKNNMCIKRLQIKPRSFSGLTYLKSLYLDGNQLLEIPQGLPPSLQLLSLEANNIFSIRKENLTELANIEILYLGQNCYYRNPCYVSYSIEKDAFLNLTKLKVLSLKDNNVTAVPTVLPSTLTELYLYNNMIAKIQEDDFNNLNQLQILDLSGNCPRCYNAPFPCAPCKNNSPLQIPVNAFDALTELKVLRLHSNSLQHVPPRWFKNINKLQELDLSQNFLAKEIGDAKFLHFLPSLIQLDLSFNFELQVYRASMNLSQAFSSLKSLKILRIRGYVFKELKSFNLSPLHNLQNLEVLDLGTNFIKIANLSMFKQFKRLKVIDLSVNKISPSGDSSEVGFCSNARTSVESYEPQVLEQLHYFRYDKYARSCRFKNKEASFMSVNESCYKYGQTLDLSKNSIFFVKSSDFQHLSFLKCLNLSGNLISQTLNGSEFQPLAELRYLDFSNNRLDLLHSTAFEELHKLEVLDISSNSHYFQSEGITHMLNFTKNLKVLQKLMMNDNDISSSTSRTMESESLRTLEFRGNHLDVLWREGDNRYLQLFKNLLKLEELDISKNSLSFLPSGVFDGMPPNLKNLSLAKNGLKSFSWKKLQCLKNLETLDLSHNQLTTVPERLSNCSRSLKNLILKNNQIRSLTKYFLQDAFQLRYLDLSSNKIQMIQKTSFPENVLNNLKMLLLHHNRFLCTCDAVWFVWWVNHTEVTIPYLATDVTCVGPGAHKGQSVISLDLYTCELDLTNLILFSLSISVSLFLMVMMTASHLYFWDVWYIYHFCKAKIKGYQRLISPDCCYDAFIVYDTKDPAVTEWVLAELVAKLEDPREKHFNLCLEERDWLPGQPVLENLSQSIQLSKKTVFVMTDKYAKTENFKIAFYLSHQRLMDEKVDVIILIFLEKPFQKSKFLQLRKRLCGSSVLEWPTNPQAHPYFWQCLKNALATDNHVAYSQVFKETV
The experiment in a line: HEK293-Blue-hTLR-7 cells assay (SEAP reporter, R848 stimulation). The class given is cell-based. The settings on record: HEK293-Blue-hTLR7 cells, R848, 20 hrs; 0.003 is the lowest tested concentration; read-out: HEK/hTLR7 IC50. The gist of the method:
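HEK293-Blue-hTLR7 cells carry an NF-κB/AP-1-driven SEAP reporter and were stimulated with R848 in the presence of serially diluted compound (1% DMSO final) for 20 hrs at 37 °C. Supernatant SEAP was measured with QUANTI-Blue after 2 hrs at 37 °C, reading absorbance at 620∼655 nm.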
Turning to `C[C@@H]1CN(c2ccc(C#N)c3ncccc23)C[C@H](CN2CCc3cc(N4CCNCC4)ncc3C2)O1` [Example 70, 5-[(2R,6S)-2-methyl-6-[(6-piperazin-1-yl-3,4-dihydro-1H-2,7-naphthyridin-2-yl)methyl]morpholin-4-yl]quinoline-8-carbonitrile], the IC50 was determined as 14 nM.

As for `C[C@@H]1CN(c2ccc3c(c2)CN(C[C@H]2CN(c4ccc(C#N)c5ncccc45)C[C@@H](C)O2)C3)C[C@H](C)N1` [Example 71, 5-[(2R,6S)-2-methyl-6-[[5-[(3R,5S)-3,5-dimethylpiperazin-1-yl]isoindolin-2-yl]methyl]morpholin-4-yl]quinoline-8-carbonitrile], the IC50 amounted to 108 nM.

As to `C[C@@H]1CN(c2ccc(C#N)c3ncccc23)C[C@H](CN2Cc3ccc(N4CC5COCC(C4)N5)cc3C2)O1` [Example 72, 5-[(2R,6S)-2-methyl-6-[[5-(3-oxa-7,9-diazabicyclo[3.3.1]nonan-7-yl)isoindolin-2-yl]methyl]morpholin-4-yl]quinoline-8-carbonitrile], the IC50 was 45 nM. With `C[C@@H]1CN(c2ccc(C#N)c3ncccc23)C[C@H](CN2Cc3ccc(N4CCNCC4CO)cc3C2)O1` (stereo partly drawn) [Example 73, 5-[(2S,6R)-2-[[5-[2-(hydroxymethyl)piperazin-1-yl]isoindolin-2-yl]methyl]-6-methyl-morpholin-4-yl]quinoline-8-carbonitrile], the IC50 worked out at 48 nM. As for `C[C@@H]1CN(c2ccc(C#N)c3ncccc23)C[C@H](CN2Cc3ccc(CN4CCCCC4)cc3C2)O1` [Example 74, 5-[(2R,6S)-2-methyl-6-[[5-(1-piperidylmethyl)isoindolin-2-yl]methyl]morpholin-4-yl]quinoline-8-carbonitrile], the IC50 was 59 nM. For the compound `C[C@@H]1CN(c2ccc(C#N)c3ncccc23)C[C@H](CN2Cc3ccc(N4CCNCC4)cc3C(O)C2)O1` (stereo partly drawn) [Example 75, 5-[(2S,6R)-2-[(4-hydroxy-6-piperazin-1-yl-3,4-dihydro-1H-isoquinolin-2-yl)methyl]-6-methyl-morpholin-4-yl]quinoline-8-carbonitrile], the IC50 was 42 nM. Then `C[C@@H]1CN(c2ccc(C#N)c3ncccc23)C[C@H](CN2Cc3ccc(N4CCNCC4C(F)F)cc3C2)O1` (stereo partly drawn) [Example 76, 5-[(2S,6R)-2-[[5-[2-(difluoromethyl)piperazin-1-yl]isoindolin-2-yl]methyl]-6-methyl-morpholin-4-yl]quinoline-8-carbonitrile], with 9 nM; and `C[C@@H]1CN(c2ccc(C#N)c3ncccc23)C[C@H](CN2Cc3ccc(N4CC(N)C4)cc3C2)O1` [Example 77, 5-[(2S,6R)-2-[[5-(3-aminoazetidin-1-yl)isoindolin-2-yl]methyl]-6-methyl-morpholin-4-yl]quinoline-8-carbonitrile], with 32 nM; and `CC1CNCCN1c1ccc2c(c1)CN(C[C@H]1CN(c3ccc(C#N)c4ncccc34)C[C@@H](C)O1)C2` (stereo partly drawn) [Example 78, 5-[(2R,6S)-2-methyl-6-[[5-(2-methylpiperazin-1-yl)isoindolin-2-yl]methyl]morpholin-4-yl] quinoline-8-carbonitrile], with 11 nM. For the compound `C[C@@H]1CN(c2ccc(C#N)c3ncccc23)C[C@H](CN2CCc3nc(N4CCNCC4)ccc3C2)O1` [Example 79, 5-[(2R,6S)-2-methyl-6-[(2-piperazin-1-yl-7,8-dihydro-5H-1,6-naphthyridin-6-yl)methyl]morpholin-4-yl]quinoline-8-carbonitrile], the IC50 is 15 nM. Consider `C[C@@H]1CN(c2ccc(C#N)c3ncccc23)C[C@H](CN2Cc3ccc(N4CCNCC4)nc3C2)O1` [Example 80, 5-[(2R,6S)-2-methyl-6-[(2-piperazin-1-yl-5,7-dihydropyrrolo[3,4-b]pyridin-6-yl)methyl]morpholin-4-yl]quinoline-8-carbonitrile], for which the IC50 was 7 nM. Then `C[C@@H]1CN(c2ccc(C#N)c3ncccc23)C[C@H](CN2Cc3ccc(N4CCNC[C@@H]4CO)cc3C2)O1` [Example 82, 5-[(2S,6R)-2-[[5-[(2R)-2-(hydroxymethyl)piperazin-1-yl]isoindolin-2-yl]methyl]-6-methyl-morpholin-4-yl]quinoline-8-carbonitrile], with 47 nM. The same measure for `C[C@@H]1CN(c2ccc(C#N)c3ncccc23)C[C@H](CN2Cc3ccc(N4CCNC[C@H]4CO)cc3C2)O1` [Example 83, 5-[(2S,6R)-2-[[5-[(2S)-2-(hydroxymethyl)piperazin-1-yl]isoindolin-2-yl]methyl]-6-methyl-morpholin-4-yl]quinoline-8-carbonitrile]: 34 nM. For the compound `C[C@@H]1CN(c2ccc(C#N)c3nccnc23)C[C@H](CNCc2ccc(N3CCNCC3)cc2)O1` [Example 84, 8-[(2R,6S)-2-methyl-6-[[(4-piperazin-1-ylphenyl)methylamino]methyl]morpholin-4-yl]quinoxaline-5-carbonitrile], the IC50 was 12 nM. Turning to `C[C@@H]1CN(c2ccc(C#N)c3ncccc23)C[C@H](CNCc2ccc(N3CCNCC3)cc2)O1` [Example 86, 5-[(2R,6S)-2-methyl-6-[[(4-piperazin-1-ylphenyl)methylamino]methyl]morpholin-4-yl] quinoline-8-carbonitrile], the IC50 came to 15 nM. The same measure for `C[C@@H]1CN(c2ccc(C#N)n3nccc23)C[C@H](CN2CCc3cnccc3C2)O1` [Example R1, 4-[(2S,6R)-2-(3,4-dihydro-1H-2,6-naphthyridin-2-ylmethyl)-6-methyl-morpholin-4-yl]pyrazolo[1,5-a]pyridine-7-carbonitrile, reference compound]: 550 nM. Then `C[C@@H]1CN(c2ccc(C#N)n3nccc23)C[C@H](CN2Cc3ccncc3C2)O1` [Example R2, 4-[(2S,6R)-2-(1,3-dihydropyrrolo[3,4-c]pyridin-2-ylmethy1)-6-methyl-morpholin-4-yl]pyrazolo[1,5-a]pyridine-7-carbonitrile, reference compound], with 722 nM; and `C[C@@H]1CN(c2ccc(C#N)c3ncccc23)C[C@H](CN2Cc3ccccc3C2)O1` [Example R3, 5-[(2S,6R)-2-(isoindolin-2-ylmethyl)-6-methyl-morpholin-4-yl]quinoline-8-carbonitrile, reference compound], with 186 nM.
